Test results as given in patent US20150257394A1, “TEA EXTRACTS AND USES IN PROMOTING PLANT GROWTH” (PLANT ACTIVITY LTD., priority 2012, published 2015).

Tested on: wheat seeds
Assay: Effect of preservative on promotion of wheat seedling root growth by black tea extract (Example 10)
Assay type: in vivo
Conditions: 1% solution of methyl paraben predissolved in hexalene glycol
Protocol: To evaluate whether a preservative affects the benefits of black tea extracts on wheat germination and early root growth, Malawi black tea extracts and Kenya black tea extracts were prepared according to Example 1 and used to treat wheat seeds (0.6 ml/kg seed) in combination with a preservative (1% solution of methyl paraben that has been predissolved in hexalene glycol (30:1 ratio of hexalene glycol to methyl paraben)) or without the preservative substantially according to Example 2. Root system measurements were performed according to Example 6.

COC(=O)c1ccc(O)cc1 [methyl paraben]
effect of preservative on the benefits of the black tea extracts: did not negatively affect
